Test: Acid-catalyzed hydrolysis of enol ethers in THF/1 M HCl
Type: physicochemical
Conditions: THF/1M HCl (80:20 v/v), room temperature; for Hydrolysis of enol ethers, percent remaining, initial: initial (time zero)
Protocol: The acid-catalyzed hydrolysis of Compounds 1, 2, 3 and 25 were measured and compared to the hydrolysis of enol ethers report in WO2019243501. Each enol ether was dissolved in a 4:1 THF/1 M HCl mixture and the percent remaining over time measured relative to an internal standard.
Into a 15 mL vial were added 125 mg of enol ether, 60 mg of hexadecane and 10 mL of THE (purged with N2 and containing 2500 ppm of BHT). After mixing, 2 mL of this solution were removed with a volumetric pipet and used to obtain the time zero measurement. 2 mL of 1 M HCl were mixed with the remaining 8 mL of the THF solution. This mixture was divided into 5 mL vials (1 mL per vial). The vials were gently topped with nitrogen and fitted with screw caps around which parafilm was wrapped. The vials were stored at room temperature until analyzed. For analyses, 2 mL of ethyl acetate was added to a vial and mixed. After phase separation, the top phase was collected and washed with saturated sodium carbonate (1 mL). Samples of the organic phase were analyzed by GC-FID. For the time zero sample, 0.5 mL of deionized water was added to the 2 mL taken from the original THE solution. 1 mL of this solution was added to a 5 mL vial and diluted with 2 mL of ethyl acetate and mixed. The top phase was collected and washed with saturated sodium carbonate (1 mL). The top phase then was analyzed by GC-FID. The percent of enol ether remaining was determined by dividing the peak area ratio of the enol ether to internal standard by the ratio measured at time zero.

| SMILES | Hydrolysis of enol ethers, percent remaining, 1 d | Hydrolysis of enol ethers, percent remaining, 2 d | Hydrolysis of enol ethers, percent remaining, 3 d | Hydrolysis of enol ethers, percent remaining, 7 d | Hydrolysis of enol ethers, percent remaining, initial | Hydrolysis of enol ethers, percent remaining, 5 h |
| --- | --- | --- | --- | --- | --- | --- |
| CC/C=C\CCOC=Cc1ccc(OC)cc1 [1-(2-(((Z)-hex-3-en-1-yl)oxy)vinyl)-4-methoxybenzene, reference compound] | 89.1% | 80.2% | 72.4% | 52.5% | 100% |  |
| CC/C=C\CCOC=Cc1ccccc1 [(2-(((Z)-hex-3-en-1-yl)oxy)vinyl)benzene, reference compound] |  |  | 79.5% | 57.3% | 100% |  |
| CCCCCC(CC)OC=Cc1ccccc1 (stereo not shown) [(2-(octan-3-yloxy)vinyl)benzene, reference compound] | 84.9% | 72.0% | 61.7% | 33.6% | 100% |  |
| C(=Cc1ccccc1)OCCc1ccccc1 [(2-phenethoxyvinyl)benzene, reference compound] | 95% | 90% | 83.7% | 66.4% | 100% |  |
| CCCCCCCCCCC=COCCc1ccccc1 [Compound 1, (2-(dodec-1-en-1-yloxy)ethyl)benzene] | 0% | 0% | 0% | 0% | 100% | 12.8% |
| CCCCCCCCCCCC=COCCc1ccccc1 [Compound 2, (2-(tridec-1-en-1-yloxy)ethyl)benzene] | 0% | 0% | 0% | 0% | 100% | 16.3% |
| C=CCCCCCCCC=COCCc1ccccc1 [Compound 3, (2-(undeca-1,10-dien-1-yloxy)ethyl)benzene] | 0% | 0% | 0% | 0% | 100% | 19.9% |
| CCCCCCCCCC(C)C=COCCc1ccccc1 (stereo not shown) [Compound 25, (2-((3-methyldodec-1-en-1-yl)oxy)ethyl)benzene] | 4.6% | 0% | 0% | 0% | 100% | 35.6% |
| CC/C=C\CCOC=CC(C)CCCCCCCCC (stereo not shown) [Compound 27, 1-(((Z)-hex-3-en-1-yl)oxy)-3-methyldodec-1-ene] |  |  |  |  | 100% | 29.8% |
| CCCCCCCCCC(C)C=COC(CC)CCCCC (stereo not shown) [Compound 29, 3-methyl-1-(octan-3-yloxy)dodec-1-ene] |  |  |  |  | 100% | 3.7% |
